Assay results: patent publication US20150141485A1, “PROGNOSIS AND TREATMENT OF LUNG CANCER USING miRNA-135b” (NATIONAL CHENG KUNG UNIVERSITY, priority 2013, published 2015)

Tests used:
[1] = tested on: miR-135b expression; assay: Real-time RT-PCR of miR-135b after DNA demethylation; format: cell-based; details: cancer cells treated 4 days
Experimental: Cells were treated with different doses of 5-aza-2′-CdR (5′-aza) for 4 days, and total RNA was harvested for real time RT-PCR. Data are expressed as the mean±s.d.
(§1) Cells were seeded at concentration of 1×10^5 for treatment with 5-aza-2′-CdR (R&D Systems INC., MN, USA) for 96 hours. For TNF-α (PeproTech, Rocky Hill. N.J.) stimulation, 1×10^6 cells were seeded for 24 hours and treated with different amounts of TNF-α for 6 hours.
(§2) Total RNA was isolated using TRIZOL reagent (Invitrogen, Carisbad, Calif.) according to the standard protocol. The mature miR-135b and endogenous control U6B were analyzed using TaqMan Micro RNA Assay (Applied Biosystems, Foster City, Calif.). Briefly, total RNA was reverse-transcribed via SuperScipt-III Reverse Transcriptase (Invitrogen, Carlsbad, Calif.). The cDNA was amplied with TaqMan 2× Universal Master Mix (Applied Biosystems), and miRNA-specific real-time PCR was performed using an ABI 7500 real-time PCR system.

[2] = tested on: LEMD1 mRNA; assay: LEMD1 mRNA expression after DNA demethylation; format: cell-based; details: lung cancer cell lines
Experimental: as §1

[3] = tested on: CL1-5-F4 cells; assay: Real-time RT-PCR of miR-135b; format: cell-based, human; details: 6 hours
Experimental: CL1-5-F4 cells were treated with different concentrations of TNF-α with or without BAY-117082 (5 or 10 μM) for 6 hours. Total RNA was harvested, and miR-135b expression was analyzed and analysis by real-time RT-PCR. Mean±s.d. is shown, *P<0.05; **P<0.005 by Student's t-test.
as §1, §2

[4] = tested on: NF-κB binding site within the miR-135b promoter; assay: Chromatin immunoprecipitation (ChIP) with anti-p65; format: cell-based; details: 6 hours stimulation
Experimental: The cells were treated with indicated amounts of 5-aza-2′-CdR (upper panel) for 4 days or TNF-α (lower panel) for 6 hours before being subjected to chromatin immunoprecipitation (ChIP) with anti-p65 antibody and specific primers.
CL1-0 and H1299 cells were fixed with 1% formaldehyde and blocked by 125 mM glycine. The cells were resuspended in cell lysis buffer (5 mM HEPES, 85 mM KCl, 0.5% Triton X-100, 1 mM DTT, 1 mM PMSF, pH 8.0), followed by nucleic lysis buffer (50 mMTris-HCl, 10 mM EDTA, 1% SDS, 1 mM DTT, and protease inhibitor (Roche Applied Science, Mannheim, Germany)). The cell lysate was sonicated and clarified by centrifugation. The supernatant was diluted with protein G beads at 4° C. to pre-clear the solution Immunoprecipitation with anti-RelA (Abcam, Cambridge, UK) was performed at 4° C. overnight. DNA-protein complexes were than incubated with protein G agarose beads at 4° C. with constant rotation for 2 hours. Following immunoprecipitation, the beads were washed with a low-salt wash buffer, a high-salt wash buffer, a LiCl wash buffer, and, finally, a TE buffer. The immunoprecipitated complexes were eluted in a buffer containing 10 mM Tris pH 8.0, 300 mM NaCl. 5 mM EDTA, and 0.5% SDS at room temperature. The samples were then treated with proteinase K for 1 hour, followed by RNAse A. Next, the DNA was purified by phenol/chloroform extraction. […]

[5] = tested on: H1299 cells; assay: Real-time RT-PCR of miR-135b; format: cell-based; details: single treatment
Experimental: Cells were treated with or without 5-aza-2′-CdR for 4 days and re-seeded for TNF-α stimulation for 6 hours. Total RNA was harvested, and miR-135b expression was analyzed. Mean±s.d. is shown, *P<0.05; **P<0.005 by Student's t-test.
as §1, §2

[6] = tested on: CL1-5-F4 cells; assay: Transwell invasion assay; format: cell-based, human; details: CL1-5-F4 cells stably expressing sponge vs control sponge
Experimental: CL1-5-F4 and Hop-62 cells were transfected with scramble (NC) of miR-135b-specific antagomir (Antago-135b) for 48 hours and the subjected to migration assays (FIG. 2d) and invasion assays (FIG. 2e) as described above. *P<0.05;**P<0.005 by Student's t-test.
CL1-5-F4 cells transfected with plasmids expressing either control or miR-135b sponges were analyzed using in vitro invasion assay. The average number of invading cells obtained in the transwell invasion assay is presented (n=3).
Transwell chambers ([…], BD Falcon, Franklin Lakes, N.J.) were coated with the appropriate amount of Matrigel (BD Biosciences, San Jose, Calif.). Next, 2.5×10^4 cells were suspended in NuSerum-containing media (Gibco BRL, Grand Island N.Y., USA), seeded in the chamber and cultured, Cells that invaded the chamber from top to bottom were fixed with methanol and stained with a solution of propidium iodine (Sigma-Aldrich, St. Louis, Mo.). The propidiumiodine-positive signal was quantified using Analytical Imaging Station software package. Each sample was assayed in triplicate.

[7] = tested on: CL1-5-F4 cells; assay: Lung metastasis after intravenous injection of sponge-expressing cells; format: in vivo; details: SCID mice, i.v. sponge-producing CL1-5-F4 cells, 6 weeks, P=0.0126
Excerpt: CL-5-F4 cells stably expressing control sponge or miR-135b sponge were intravenously injected into SCID mice (n=8). Representative pictures of murine whole lung (left) and H&E staining of lung sections (right) are presented.
Lung tumor nests in each group were examined and counted using a microscope (n=8); Mean±s.e.m. is shown,*P<0.05 by Student's t-test.
Animals were housed in a specific-pathgen-free environment in the animal facility of the Institute of Biomedical Sciences, Academia Sinica. All experimental procedures were in compliance with the Academia Sinica IACUC and Council of Agriculture Guidebook for the Care and Use of Laboratory Animals. For intravenous injections of the tumor cells, 1×10^6 cells were suspended in 0.1 mL of phosphate-buffered saline (PBS) and injected into lateral tail vein of SCID mice (10 mice per group). […] For the subcutaneous tumor assay, 1×10^6 CL1-0 cells or 2×10^5 H441 cells were subcutaneously injected in 0.1 mL of PBS into male nude mice (n=8 per group) and allowed to grow for 35 days to reach a volume of 50-200 mm^3 Control antagomir (Scramble) or anti-miR-135b antagomir (antago-135) was intravenously injected at a concentration of 10 μM in 0.1 mL of PBS 4 days after the cells were implanted. An example of a miR-135b antagomir is 5′mU(*)mC(*)mAmCmAmUmAmG-mGmAmAmUmGmAmAmAmAmGmCmC(*)mA(*)mU(*)mA(*)(3′-Ch1)3′ (SEQ ID NO:8). […]

Molecule: Nc1ncn([C@H]2C[C@H](O)[C@@H](CO)O2)c(=O)n1 [5-aza-2′CdR]
- miR-135b expression levels [1]: restored
- LEMD1 mRNA expression [2]: restored LEND1 mRNA expression in a dose-dependent manner

Molecule: Cc1ccc(S(=O)(=O)/C=C/C#N)cc1 [BAY-117082]
- TNF-α-stimulated miR-135b expression ([3]; 5 or 10 μM): negated

Molecule: TNF-α
- association of NF-κB with the miR-135b promoter [4]: confirmed
- miR-135b expression [5]: induced miR-135b expression was also observed
- miR-135b expression [3]: induced miR-135b expression was also observed

B1: miR-135b sponge: miR-135-specific sponge carrying seven repeats of the miR-135b binding site (SEQ ID NO:12) (nucleic acid)
DNA: GTCGACTCACATAGGAACTTAAGCCATAATGCTCACATAGGAACTTAAGCCATAATGCTCACATAGGAACTTAAGCCATAATGCTCACATAGGAACTTAAGCCATAATGCTCACATAGGAACTTAAGCCATAATGCTCACATAGGAACTTAAGCCATAATGCTCACATAGGAACTTAAGCCATAATGTCGAC
- invasiveness in transwell invasion assay [6]: diminished the invasive
- number of tumor nodules developed in the mouse lungs [7]: significantly reduced
